IC50 data for six molecules are collected here from US10821115B2, “Compounds that inhibit Mcl-1 protein” (priority 2017, dated 2020).

For assay [1], the target named is recombinant human Mcl-1 (residues 171-327) / Bim interaction (Homo sapiens (Human), UniProt Q07820). As to the kind of experiment: biochemical. The format is binding. Conditions: read-out: Mcl-1 HTRF IC50.
In assay [2] the test system is human multiple myeloma cell line, OPM-2. As to the kind of experiment: Cell viability assay (OPM-2 10 FBS), CellTiter-Glo. In kind it is cell-based. The procedure, abridged: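 Serially diluted test compounds are incubated 16 h with cells (3000/well) in RPMI 1640 supplemented with 10% FBS. Viability is then measured by luminescence and IC50 calculated by 4-parameter logistic fit.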

Setting [3] is: TR-FRET, Mcl-1(171-327) / biotin-Bim (51-76).
Setting [4] is: 0.1 nM Mcl-1(171-327), 0.05 nM biotin-Bim (51-76).
[5] abbreviates: Homo sapiens, OPM-2, 16 h, read-out: OPM-2 10% FBS IC50 IP, OPM-2 cells, 10% FBS, 16 h incubation.

Molecules are shown by their SMILES. pIC50: −log10 of the molar value. Read-outs that look alike come from different tables or passages of the source.

Chain of recombinant human Mcl-1 (residues 171-327) / Bim interaction (Q07820 171-327): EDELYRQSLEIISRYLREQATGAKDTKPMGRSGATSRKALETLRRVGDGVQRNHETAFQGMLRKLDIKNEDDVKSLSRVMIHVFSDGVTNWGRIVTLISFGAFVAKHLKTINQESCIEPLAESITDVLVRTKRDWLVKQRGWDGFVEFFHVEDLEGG

Regarding `C[C@@H]1[C@@H](C)CCC[C@](O)(CC[S@@+](C)[O-])[C@@H]2CC[C@H]2CN2C[C@@]3(CCCc4cc(Cl)ccc43)COc3ccc(cc32)C(=O)NS1(=O)=O` [Example 100330, (1S,3′R,6′R,7′S,11′S,12′R)-6-chloro-7′-hydroxy-11′,12′-dimethyl-7′-(2-((R)-methylsulfinyl)ethyl)-3,4-dihydro-2H,15′H-spiro[naphthalene-1,22′-[20]oxa[13]thia[1,14]diazatetracyclo [14.7.2.0~3,6~.0~19,24~]pentacosa[16,18,24]trien]-15′-one 13′,13′-dioxide], the negative-log IC50 (pIC50) in assay [1] (setting [3]) was 10.08; in assay [2] (Homo sapiens, OPM-2, 16 h, read-out: OPM-2 10% FBS IC50 IP, OPM-2 cells, 10% FBS, 16 h, CellTiter-Glo) it was 5.08.
In the case of `C[C@@H]1[C@@H](C)CCC[C@@](O)(CCN2CCCCC2)[C@@H]2CC[C@H]2CN2C[C@@]3(CCCc4cc(Cl)ccc43)COc3ccc(cc32)C(=O)NS1(=O)=O` [Example 100092, (1S,3′R,6′R,7′R,11′S,12′R)-6-chloro-7′-hydroxy-11′,12′-dimethyl-7′-(2-(1-piperidinyl)ethyl)-3,4-dihydro-2H,15′H-spiro[naphthalene-1,22′-[20]oxa[13]thia[1,14]diazatetracyclo [14.7.2.0~3,6~.0~19,24~]pentacosa[16,18,24]trien]-15′-one 13′,13′-dioxide], the negative-log IC50 (pIC50) in assay [1] (setting [3]) is 8.40; in assay [2] (read-out: OPM-2 10% FBS IC50 IP, OPM-2 cells, 10% FBS, 16 h, CellTiter-Glo) it was 5.66.
On to `CO[C@@]1(CN2CC3(C2)CN(C)C(=O)O3)/C=C/C[C@H](C)[C@@H](C)S(=O)(=O)NC(=O)c2ccc3c(c2)N(C[C@@H]2CC[C@H]21)C[C@@]1(CCCc2cc(Cl)ccc21)CO3` [Example 291, (1S,3′R,6′R,7′S,8′E,11′S,12′R)-6-chloro-7′-methoxy-11′,12′-dimethyl-7′-((7-methyl-6-oxo-5-oxa-2,7-diazaspiro[3.4]oct-2-yl)methyl)-3,4-dihydro-2H,15′H-spiro[naphthalene-1,22′-[20]oxa[13]thia[1,14]diazatetracyclo [14.7.2.0~3,6~.0~19,24~]pentacosa[8,16,18,24]tetraen]-15′-one 13′,13′-dioxide], for which the pIC50 in assay [1] (setting [4]) was 10.08; in assay [2] (setting [5]) it was 6.98.
As to `COCCN1CCN(C[C@@]2(OC)/C=C/C[C@H](C)[C@@H](C)S(=O)(=O)NC(=O)c3ccc4c(c3)N(C[C@@H]3CC[C@H]32)C[C@@]2(CCCc3cc(Cl)ccc32)CO4)CC1` [Example 61, (1S,3′R,6′R,7′R,8′E,11′S,12′R)-6-chloro-7′-methoxy-7′-((4-(2-methoxyethyl)-1-piperazinyl)methyl)-11′,12′-dimethyl-3,4-dihydro-2H,15′H-spiro[naphthalene-1,22′-[20]oxa[13]thia[1,14]diazatetracyclo [14.7.2.0~3,6~.0~19,24~]pentacosa[8,16,18,24]tetraen]-15′-one 13′,13′-dioxide], the pIC50 is 10.12 in assay [1] (setting [4]) and 6.91 in assay [2] (setting [5]).
Regarding `CO[C@@]1(CN2CCN3CCS(=O)(=O)C[C@@H]3C2)/C=C/C[C@H](C)[C@@H](C)S(=O)(=O)NC(=O)c2ccc3c(c2)N(C[C@@H]2CC[C@H]21)C[C@@]1(CCCc2cc(Cl)ccc21)CO3` (single isomer, unassigned) [Example 231], the pIC50 in assay [1] (setting [4]) was 10.21; in assay [2] (read-out: OPM-2 10% FBS IC50 IP, OPM-2 cells, 10% FBS, 16 h incubation) it was 7.01.
As to `CO[C@@]1(CN2CC(=O)N3CCCC[C@@H]3C2)/C=C/C[C@H](C)[C@@H](C)S(=O)(=O)NC(=O)c2ccc3c(c2)N(C[C@@H]2CC[C@H]21)C[C@@]1(CCCc2cc(Cl)ccc21)CO3` [Example 150, (1S,3′R,6′R,7′S,8′E,11′S,12′R)-6-chloro-7′-methoxy-11′,12′-dimethyl-7′-(((9aR)-4-oxooctahydro-2H-pyrido[1,2-a]pyrazin-2-yl)methyl)-3,4-dihydro-2H,15′H-spiro[naphthalene-1,22′-[20]oxa[13]thia[1,14]diazatetracyclo [14.7.2.0~3,6~.0~19,24~]pentacosa[8,16,18,24]tetraen]-15′-one 13′,13′-dioxide], the values for the pIC50 in assay [1] (setting [4]) and in assay [2] (setting [5]) were 9.71 and 6.61, respectively.
